The results in this text go back to ChEMBL document CHEMBL1255475, “Mutant prevention concentrations of four carbapenems against gram-negative rods” (2010).

In assay [1] the test system is Acinetobacter baumannii. Briefly: Ratio of mutant prevention concentration to minimum Inhibitory concentration for Acinetobacter baumannii A850. The class given is functional.
Assay [2] concerns Acinetobacter baumannii. Briefly: Ratio of mutant prevention concentration to minimum Inhibitory concentration for Acinetobacter baumannii A890. The class given is functional.
Assay [3] relates to Acinetobacter baumannii. Briefly: Ratio of mutant prevention concentration to minimum Inhibitory concentration for Acinetobacter baumannii A903. The class given is functional.
Assay [4] relates to Escherichia coli. Briefly: Antibacterial activity against beta-lactamase-negative Escherichia coli E348 after 24 hrs by agar dilution method. Conditions: E348, 24 h.
Assay [5] deals with Escherichia coli. Briefly: Antibacterial activity against beta-lactamase-positive ESBL-positive Escherichia coli E451 after 24 hrs by agar dilution method. Conditions: E451, 24 h. (Agar dilution tests growth on a series of plates holding different concentrations.)

Converted amounts (≈) assume the structure as drawn.

What is called MIC is the least concentration at which growth counts as inhibited. Read a low MIC as inhibition by little substance.

As for `C[C@@H](O)[C@H]1C(=O)N2C(C(=O)O)=C(S[C@@H]3CN[C@H](CNS(N)(=O)=O)C3)[C@H](C)[C@H]12` [DORIPENEM], the Ratio is given as 2 in the assay on Acinetobacter baumannii [1], 4 with Acinetobacter baumannii [2] and 4 in the assay on Acinetobacter baumannii [3].

As to `C[C@@H](O)[C@H]1C(=O)N2C(C(=O)O)=C(SCCNC=N)C[C@H]12` [IMIPENEM ANHYDROUS], the MIC against Escherichia coli [4] came to 0.125 µg/mL (≈ 0.418 µM); against Escherichia coli [5], 0.25 µg/mL (≈ 0.835 µM).
